Data taken from ChEMBL document CHEMBL1156829 (Proc Natl Acad Sci U S A, 2008).

How the values were obtained:
Plasmodium falciparum [1] = assay: NOVARTIS: Inhibition of Plasmodium falciparum 3D7 (drug-susceptible) proliferation in erythrocyte-based infection assay; assay type: functional, organism-based; conditions: Plasmodium falciparum, 3D7
Plasmodium falciparum [2] = assay: NOVARTIS: Inhibition of Plasmodium falciparum W2 (drug-resistant) proliferation in erythrocyte-based infection assay; assay type: functional, organism-based; conditions: Plasmodium falciparum, W2; read-out: EC50
[3] = NOVARTIS: Cytotoxicity against human hepatocellular carcinoma cell line (Huh7); assay type: toxicity, cell-based, Huh-7; conditions: Huh7 cells (hepatocellular carcinoma cell line)

Structure (SMILES)	EC50 (Plasmodium falciparum [1]) [nM]	EC50 (Plasmodium falciparum [2]) [nM]	CC50 [3] [nM]
OC1(c2ccc3ccccc3c2)c2c(c3ccccc3c3ccccc23)C2=NCCN21 (centres undefined)	252	281	> 10000
C[n+]1c2ccccc2nc2ccc(NC3CCCCC3N)cc21.[O-][Cl+3]([O-])([O-])[O-] (centres undefined)	256	122	4210
COc1cccc(NC(=O)c2ccc(NCCCN3CCC(C)CC3)c([N+](=O)[O-])c2)c1	296	521	18700
O=C(Nc1cccc(Cl)c1)c1cc2ccccc2cc1O	545	229	7890
C=C(C[N+](C)(C)C)c1ccc([N+](=O)[O-])cc1	317	279	> 10000
CN(C)CCNC(=O)c1ccc(-c2cncc(NCc3ccc(Cl)c(Cl)c3)c2)cc1	640	284	10300
O=C(/C=C/c1ccccc1)Nc1ccccc1C(=O)Nc1ccc(-c2nc3ccc(NC(=O)c4ccccc4NC(=O)/C=C/c4ccccc4)cc3[nH]2)cc1	347	382	> 13300
OC(CN1CCN(C2c3ccccc3-c3ccccc32)CC1)Cn1c2ccc(Cl)cc2c2cc(Cl)ccc21 (centres undefined)	1200	278	> 10000
COc1cc(C=C2CCC(=Cc3cc(OC)c(OC)c(OC)c3)C2=O)cc(OC)c1OC	2210	2750	> 100000
Cc1cc(C)c(CSc2ncnc3[nH]cnc23)c(C)c1	> 1520	> 278	> 10000
CCN1CCN(c2cc(C)c3cc(NC(=O)C=Cc4ccc(OC)cc4)ccc3n2)CC1	2020	2750	> 100000
CCN(CC)CCCNC(=S)N(Cc1cc2ccc(OC)cc2[nH]c1=O)C1CCCCC1	4030	1120	40800
CC1CCC(C(C)(C)Oc2ccc(NC(=O)c3ccccc3)cc2)CC1 (centres undefined)	3970	1170	42800
CC1=C(C(=O)OC2CCCCC2)C(c2ccc(F)c(F)c2)C2=C(CCCC2=O)N1 (centres undefined)	6230	2730	> 100000
CCOC(=O)c1c(NC(=O)C(C)Sc2ncnc3c2oc2ccccc23)sc2c1CCC2 (centres undefined)	> 8810	2900	> 100000
CCN(CC)S(=O)(=O)c1cc(S(=O)(=O)c2ccc(Cl)c(S(=O)(=O)N(CC)CC)c2)ccc1Cl	> 927	> 278	> 10000
O=C(Nc1ccc(Oc2ccc(OC(F)(F)F)cc2)cc1)C1CC1	1670	2770	> 100000
Cc1cc(N2CCN(c3ccccn3)CC2)n2c(nc3ccccc32)c1C#N	1400	2760	> 100000
O=C(NC(CN1CCCC1)c1ccccc1)C1CCCCN1S(=O)(=O)c1ccc(Cl)cc1 (centres undefined)	189	514	18600
CCCCCCCSc1c(O)c2ccc(Cl)cc2[nH]c1=O	122	272	> 10000
CCN(CCN1CCN(S(=O)(=O)c2cc(Cl)ccc2Cl)CC1)CC1=CCC2CC1C2(C)C (centres undefined)	1790	289	> 10000
CC(NCCCN(C)C)c1cc(C(C)(C)C)cc2c1CCC2(C)C (centres undefined)	620	179	6220
COC(CNC(=O)c1c[nH]c2ccc(S(=O)(=O)N3CCN(C)CC3)cc2c1=O)OC	> 12500	2860	> 100000

Structure (SMILES)	EC50 (Plasmodium falciparum [1]) [nM]	EC50 (Plasmodium falciparum [2]) [nM]	CC50 [3] [nM]
CN(CCCNc1ccnc2cc(Cl)ccc12)C(=O)/C=C/c1ccccc1	371	286	> 10000
CC(=O)Nc1ccc2c(c1)C(=O)N(C(C(=O)NCC(=O)O)C1CC1)[C@@H](CCC(=O)O)C(=O)N2 (some centres undefined)	1260	280	> 10000
CCCOC(=O)C1=C(C)NC2=C(C(=O)CCC2)C1c1cc(Br)c(O)c(OCC)c1 (centres undefined)	> 12500	2820	> 100000
Cn1c(SCc2cccc([N+](=O)[O-])c2)nc2c(c1=O)SCC2	3280	2790	> 100000
CCN(CC)c1scc(-c2ccc(Cl)cc2)[s+]1	303	725	25400
CN(CCCNc1ccnc2cc(Cl)ccc12)C(=O)c1ccc(Cl)c([N+](=O)[O-])c1	137	226	> 7920
O=[N+]([O-])c1ccc(S(=O)(=O)NCCCCNc2ccnc3cc(Cl)ccc23)cc1	934	275	9670
O=C(O)c1c(F)cccc1Cl	> 7730	2850	> 100000
COc1ccc2sc(Nc3nc(-c4ccccn4)cs3)nc2c1	118	125	4400
CNC(=O)c1nn(C)c2c1CC(NCC1CCCCC1)CC2 (centres undefined)	> 12500	2830	> 100000
CCCC(=O)O[C@]1(C(=O)CCl)[C@@H](C)CC2C3CCC4=CC(=O)C=C[C@]4(C)[C@@]3(F)C(=O)C[C@@]21C (some centres undefined)	1680	283	> 10000
CCC(C)(C)c1ccc(OCCCC[n+]2cccc(C)c2C)c(C(C)(C)CC)c1	495	430	15200
O=C(C1=C(O)C(=O)N(CCCn2ccnc2)C1c1ccccc1[N+](=O)[O-])c1ccccc1 (centres undefined)	> 12500	2830	> 100000
CCN1CCN(C(=O)Nc2ccc(Cc3ccc(NC(=O)N4CCN(CC)CC4)cc3)cc2)CC1	2390	1720	62000
Nc1cccc(Oc2ccc3c(c2)C(=O)N(c2cccc(C(=O)O)c2)C3=O)c1	> 1250	> 277	> 10000
O=C(Nc1ccc(NC(=O)Nc2ccc(C3=NCCN3)cc2)cc1)Nc1ccc(C2=NCCN2)cc1	305	276	> 10000
c1ccc(-c2nc3cc4ccccc4cc3nc2-c2ccsc2)cc1	3440	2830	> 100000
CCN1c2ccccc2N=C2C=CC(N)=CC21 (centres undefined)	59.6	278	> 10000
Cc1ncc(CN2CCC(C(=O)Nc3ccc(-n4cccn4)cc3)CC2)s1	3190	2830	> 100000
COC(=O)C1CCCN1S(=O)(=O)c1ccc2ccccc2c1 (centres undefined)	> 4940	2820	> 100000
COc1ccc(OC(C)=O)c(C=NNC(=O)C(C)Oc2ccccc2Br)c1 (centres undefined)	5100	2800	> 100000
CN1CCc2c(sc3nc(SCC(=O)NCCc4ccccc4)n(-c4ccc(Cl)cc4)c(=O)c23)C1	1310	1910	68500
FC(F)(F)COc1nc(N2CCCCC2)nc(N(c2ccccc2)c2ccccc2)n1	> 5970	2790	> 100000

Structure (SMILES)	EC50 (Plasmodium falciparum [1]) [nM]	EC50 (Plasmodium falciparum [2]) [nM]	CC50 [3] [nM]
COc1ccc(NC(=O)CCCCCn2c(SCc3cc(=O)oc4cc(O)ccc34)nc3ccsc3c2=O)cc1	5820	2870	> 100000
COc1ccccc1CNC(=O)c1nn(-c2ccc(Cl)cc2)c(=O)c2ccccc12	1090	2820	> 100000
Cn1c(C(OCC(=O)N2CCN(Cc3ccccc3)CC2)c2cccnc2)cc2ccccc21 (centres undefined)	2250	1100	38100
CC(C(=O)N1CCN(C(c2ccccc2)c2ccccc2)CC1)N(CCN1CCOCC1)S(=O)(=O)c1ccccn1 (centres undefined)	> 819	287	> 10000
COc1cccc(-c2ccc(O)c(CNC3CCN(Cc4ccccc4)CC3)c2)n1	376	163	5940
Cn1nc(C(=O)N2CCc3ccccc3C2)c2c1CCC(N1CCN(Cc3cccc(F)c3)CC1)C2 (centres undefined)	477	220	8020
CC(NCCC(c1ccccc1)c1ccccc1O)c1ccccc1 (centres undefined)	1120	277	> 10000
O=C(c1ccc([N+](=O)[O-])cc1)c1ccc(N2CCOCC2)c([N+](=O)[O-])c1	4200	2720	> 100000
CN(CCCNc1ccnc2cc(Cl)ccc12)C(=O)c1cccc(Cl)c1	269	202	7340
CN(CCCNc1ccnc2cc(Cl)ccc12)C(=O)COc1ccccc1	98.3	286	> 10000
COc1ccccc1CN1CCc2nc(N3CCCCC3)sc2C1	454	277	> 10000
CCN1/C(=C/c2ccc3ccccc3[n+]2CC)Sc2sc3ccccc3c21	99.2	134	4770
CC(C)NC(=O)CN(C)C1c2ccccc2CCc2ccccc21	> 1380	254	> 9180
C=C[C@H]1CN2CC[C@H]1C[C@H]2[C@H](OC(=O)CCC)c1ccnc2ccccc12	335	286	> 10000
CCOc1cccc2c(C)nc(NC(=N)N)nc12	358	1540	56500
CC(C)[C@@H](CO)Nc1ccnc2c(-c3ccccc3F)cnn12	> 1250	> 272	> 10000
COc1ccc(CCN2C(=O)CC(C(=O)Nc3cccc(Cl)c3)SC2=Nc2ccccc2)cc1OC (centres undefined)	3820	2840	> 100000
COc1ccc(C(=O)Oc2ccccc2-c2nc3cc(C)ccn3c2NC(C)(C)CC(C)(C)C)c(OC)c1	1630	283	> 10000
CC(C)c1ccc(NC(=O)c2ccc(NCCCN3CCN(c4cccc(Cl)c4)CC3)c([N+](=O)[O-])c2)cc1	1630	2810	> 100000
CCOc1ccc2nc(NCCNC(=O)c3ccco3)c(C)cc2c1	> 1250	> 279	> 10000
CCOC(=O)c1c[nH]c2ccc(C)cc2c1=O	2700	2760	> 100000
CCCCN(C(=O)c1ccccc1C)c1nc(-c2cc(OC)ccc2OC)cs1	1720	2860	> 100000
